Laboratory results taken from patent publication US20080214808A1, “Preparation of Aseptic 3-[2-[4-((6-Fluoro-1,2-Benzisoxazol-3-Yl)-1-Piperidinyl]-6,7,8,9-Tetrahydro-9-Hydroxy-2-Methyl-4H-Pyrido[1,2-a]Pyrimidin-4-One Palmitate Ester” (priority 2005, published 2008).

Experiment: Gamma irradiation of compound (I) in different containers, amounts of (I) and breakdown products by HPLC
Type: physicochemical
From the text: During pharmaceutical development, aseptic formulations of paliperidone palmitate (I) were initially obtained by gamma irradiation.
Compound (I) was irradiated with various doses of gamma rays in different containers.

[1] = Glass container, gamma dose 5 kGY
[2] = Glass container, gamma dose 10 kGY
[3] = Glass container, gamma dose 15 kGY
[4] = Glass container, gamma dose 20 kGY
[5] = Glass container, gamma dose 25 kGY
[6] = Glass container, gamma dose 30 kGY
[7] = Glass/metal container, gamma dose 5 kGY
[8] = Glass/metal container, gamma dose 10 kGY
[9] = Glass/metal container, gamma dose 15 kGY
[10] = Glass/metal container, gamma dose 20 kGY
[11] = Glass/metal container, gamma dose 25 kGY
[12] = Glass/metal container, gamma dose 30 kGY
[13] = Plastic container, gamma dose 15 kGY
[14] = Plastic container, gamma dose 20 kGY
[15] = Plastic container, gamma dose 25 kGY
[16] = gamma irradiation, maximum found

CCCCCCCCCCCCCCCC(=O)OC1CCCn2c1nc(C)c(CCN1CCC(c3noc4cc(F)ccc34)CC1)c2=O (centres unmarked) [(I), 3-[2-[4-(6-fluoro-1,2-benzisoxazol-3-yl)-1-piperidinyl]ethyl]-6,7,8,9-tetrahydro-9-hydroxy-2-methyl-4H-pyrido[1,2-a]pyrimidin-4-one palmitate ester]
amount of (I) [1]: 98.8%
amount of breakdown product (III) [1]: 0.08%
amount of breakdown products (II) [sum of (II-a) and (II-b)] [1]: 0.02%
amount of (I) [2]: 98.7%
amount of breakdown product (III) [2]: 0.15%
amount of breakdown products (II) [sum of (II-a) and (II-b)] [2]: 0.05%
amount of (I) [3]: 98.5%
amount of breakdown product (III) [3]: 0.23%
amount of breakdown products (II) [sum of (II-a) and (II-b)] [3]: 0.11%
amount of (I) [4]: 98.3%
amount of breakdown product (III) [4]: 0.34%
amount of breakdown products (II) [sum of (II-a) and (II-b)] [4]: 0.17%
amount of (I) [5]: 98.2%
amount of breakdown product (III) [5]: 0.36%
amount of breakdown products (II) [sum of (II-a) and (II-b)] [5]: 0.18%
amount of (I) [6]: 98%
amount of breakdown product (III) [6]: 0.46%
amount of breakdown products (II) [sum of (II-a) and (II-b)] [6]: 0.24%
amount of (I) [7]: 98.8%
amount of breakdown product (III) [7]: 0.08%
amount of breakdown products (II) [sum of (II-a) and (II-b)] [7]: 0.02%
amount of (I) [8]: 98.9%
amount of breakdown product (III) [8]: 0.1%
amount of (I) [9]: 98.5%
amount of breakdown product (III) [9]: 0.23%
amount of breakdown products (II) [sum of (II-a) and (II-b)] [9]: 0.11%
amount of (I) [10]: 98.4%
amount of breakdown product (III) [10]: 0.29%
amount of breakdown products (II) [sum of (II-a) and (II-b)] [10]: 0.15%
amount of (I) [11]: 97.2%
amount of breakdown product (III) [11]: 0.35%
amount of breakdown products (II) [sum of (II-a) and (II-b)] [11]: 0.05%
amount of (I) [12]: 98.2%
amount of breakdown product (III) [12]: 0.45%
amount of breakdown products (II) [sum of (II-a) and (II-b)] [12]: 0.21%
amount of (I) [13]: 98.3%
amount of breakdown product (III) [13]: 0.23%
amount of breakdown products (II) [sum of (II-a) and (II-b)] [13]: 0.03%
amount of (I) [14]: 97.9%
amount of breakdown product (III) [14]: 0.29%
amount of breakdown products (II) [sum of (II-a) and (II-b)] [14]: 0.03%
amount of (I) [15]: 97.2%
amount of breakdown product (III) [15]: 0.35%
amount of breakdown products (II) [sum of (II-a) and (II-b)] [15]: 0.06%
breakdown product (III) formed [16]: up to 0.46%
breakdown products (II) [(II-a) and (II-b), co-eluting in HPLC] formed [16]: up to 0.24%
amount of the breakdown products (II) and (III) versus gamma dose (various doses of gamma rays, different containers): increased dose-dependently
